Measured values from patent US20230014907A1, “INHIBITORS OF APOL1 AND METHODS OF USING SAME” (Vertex Pharmaceuticals Incorporated, priority 2020, published 2023).

Biological target: T1, G1 APOL1 (Homo sapiens, UniProt O14791, I384M/S342G)
T1 construct: expressed in transfected cells
T1 sequence (O14791 28-398 S342G/I384M): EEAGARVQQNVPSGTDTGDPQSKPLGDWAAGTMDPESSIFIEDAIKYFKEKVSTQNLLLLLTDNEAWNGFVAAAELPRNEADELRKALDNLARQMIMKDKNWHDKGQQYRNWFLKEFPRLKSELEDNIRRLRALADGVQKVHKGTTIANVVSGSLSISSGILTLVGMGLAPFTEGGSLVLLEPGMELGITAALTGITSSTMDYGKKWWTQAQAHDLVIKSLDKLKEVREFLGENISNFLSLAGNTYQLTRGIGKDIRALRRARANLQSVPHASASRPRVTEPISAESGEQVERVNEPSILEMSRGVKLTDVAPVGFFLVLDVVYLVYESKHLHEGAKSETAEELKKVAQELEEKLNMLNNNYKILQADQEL
Assay: Acute APOL1 Thallium Assay with Inducible Stable Clones of HEK 293 Cells
Format: cell-based
Conditions: HEK 293 inducible stable clones, G1 APOL1; read-out: Thallium Assay (IC50)
Source text: Acute APOL1 Thallium Assay with Inducible Stable Clones of HEK 293 Cells
Apolipoprotein L1 (APOL1) proteins form potassium-permeable cation pores in the plasma membrane. APOL1 risk variants (G1 and G2) induce greater potassium flux than G0 in HEK293 cells. This assay exploits the permeability of thallium (Tl+) through ligand-gated potassium channels. The dye produces a bright fluorescent signal upon binding to Tl+ conducted through potassium channels. The intensity of the Tl+ signal is proportional to the number of potassium channels in the open state. Therefore, it provides a functional indication of the potassium channel activities. During the initial dye-loading step, the Tl+ indicator dye as an acetoxymethyl (AM) ester enters the cells through passive diffusion. Cytoplasm esterases cleave the AM ester and relieve its active thallium-sensitive form. The cells are then stimulated with Tl+. The increase of fluorescence in the assay represents the influx of Tl+ into the cell specifically through the potassium channel (i.e. through APOL1 pores), providing a functional measurement of potassium channel/pore activity. The Thallium assay is conducted with cells expressing G1 APOL1.
APOL1 Cell Line (HEK T-Rex Stable Inducible Cell Line) • HEK T-Rex System • Tetracycline (Tet) inducible mammalian expression system. • Stably express the Tet repressor to regulate transcription. • Expression under the full-length CMV promoter. • APOL1 stable inducible cell line Clone used: G1 DC3.25
Tissue Culture Media • Cell Culture Medium • DMEM+10% FBS+P/S+5 μg/mL blasticidin+1 μg/mL puromycin. • 500 mL DMEM+55 mL FBS+5 mL P/S+280 μL blasticidin S HCl (10 mg/mL)+56 μL puromycin (10 mg/mL). • Cell Assay Medium • DMEM with 2% FBS+penicillin/streptomycin.
Instruments and Equipment • Nuaire cell culture hood, Cat. No. 540-600 • 37° C./5% CO2 incubator link to robotic arm, Liconic: STX110 • Molecular Devices FLIPR^Tetra High throughput cellular screening system, Cat. No. FT0324, Molecular Devices • ThermoFisher MultiDrop 384, Cat. No. 5840300 • Biotek Microfill, Cat. No. ASF1000A-4145 • BioRad TC10 cell counter, Cat. No. 145-0010
Cells Scaled Up from Frozen Vials • APOL1 G1 3.25 (HEK293 T-Rex) frozen vials: 5 million cells per vial • Step 1, Day 1: Defrost frozen vial into T-225. • Step 2, Day 5: (when 85% confluent): Split one T-225 at 3×10^6 cells per flask. • Step 3, Day 8: Splits cells to set up for the assay plates as described below.
T-Rex APOL1 HEK cells are split twice per week to keep the confluence state below 85% of the culture flask surface area. Cells can be kept until passage 25. • Cell Culture Medium • DMEM high glucose+10% FBS, +P/S, +5 μg/mL blasticidin, +1 μg/mL puromycin. • 500 mL DMEM, +55 mL FBS, +5 mL P/S, +280 μL blasticidin 10 mg/mL, +56 μL Puromycin 10 mg/mL. • Assay Media • Opti-MEM reduced serum medium from Invitrogen.
Preparation of Cell Assay Plates • Culture medium is removed from the x cm^2 T-flask by aspiration. • The cell monolayer is rinsed with PBS 1× at room temperature. PBS is removed by aspiration. • Cells are trypsinized using Trypsin. • The flasks are incubated at room temperature for 2-3 minutes. • Complete DMEM medium is then added. Cell suspension is then transferred to a 50 mL Falcon polypropylene tube. • Cells are then counted using a BioRad TC10 cell counter and the required amount of cells are centrifuged at 1200 RPM for 5 minutes. Required amount is 1.3×10^6 cells/mL APOL1 T-Rex HEK cells. • The pellet is suspended in the assay medium. • Using the MultiDrop, add 20 μL to each well (corresponds to 26000 cells total per well) of a 384-well black, transparent, flat bottom Poly-D coated plate. • Tetracycline as prepared in the following section is added to the cells before plating to induce APOL1 expression. • Plates are left at room temperature for 20 to 30 minutes before incubation at 37° C. and 5% CO2. […]

Row | Structure (SMILES) | IC50
1 | CC(O)C(C)NC(=O)OCCc1c(-c2ccc(F)cc2)[nH]c2c(F)cc(F)cc12 (mixture of isomers) [Compound 453] | 250 to 1000 nM
2 | CC1(O)CC(NC(=O)OCCc2c(-c3ccc(F)cc3)[nH]c3c(F)cc(F)cc23)C1 (mixture of isomers) [Compound 495] | > 1000 nM
3 | CC(CCO)NC(=O)CCc1c(-c2ccc(F)cc2)[nH]c2c(F)cc(F)cc12 (racemic) [Compound 147] | > 1000 nM
4 | CC(CC(N)=O)NC(=O)NCCc1c(-c2ccc(F)cc2)[nH]c2c(F)cc(F)cc12 (racemic) [Compound 271] | 250 to 1000 nM
5 | CC(CO)CNC(=O)NCCc1c(-c2ccc(F)cc2)[nH]c2c(F)cc(F)cc12 (racemic) [Compound 280] | > 1000 nM
6 | CC(CC(N)=O)N(C)C(=O)NCCc1c(-c2ccc(F)cc2)[nH]c2c(F)cc(F)cc12 (racemic) [Compound 290] | > 1000 nM
7 | CC(CC#N)NC(=O)NCCc1c(-c2ccc(F)cc2)[nH]c2c(F)cc(F)cc12 (racemic) [Compound 301] | < 250 nM
8 | CC(CC(=O)NCCc1c(-c2ccc(F)cc2)[nH]c2c(F)cc(F)cc12)C(N)=O (racemic) [Compound 335] | > 1000 nM
9 | CC(CO)C(=O)NCCc1c(-c2ccc(F)cc2)[nH]c2c(F)cc(F)cc12 (racemic) [Compound 357] | < 250 nM
10 | CC(CO)NC(=O)OCCc1c(-c2ccc(F)cc2)[nH]c2c(F)cc(F)cc12 (racemic) [Compound 439] | < 250 nM
11 | CC(CCO)NC(=O)OCCc1c(-c2ccc(F)cc2)[nH]c2c(F)cc(F)cc12 (racemic) [Compound 457] | 250 to 1000 nM
12 | CC(NC(=O)OCCc1c(-c2ccc(F)cc2)[nH]c2c(F)cc(F)cc12)C(N)=O (racemic) [Compound 460] | 250 to 1000 nM
13 | CC(C#N)(CO)NC(=O)OCCc1c(-c2ccc(F)cc2)[nH]c2c(F)cc(F)cc12 (racemic) [Compound 461] | 250 to 1000 nM
14 | CC1(CO)CCN1C(=O)OCCc1c(-c2ccc(F)cc2)[nH]c2c(F)cc(F)cc12 (racemic) [Compound 480] | > 1000 nM
15 | CC(CC(=O)NC(CO)C(F)(F)F)c1c(-c2ccc(F)cc2)[nH]c2c(F)cc(F)cc12 (single isomer, unassigned) [Compound 514] | > 1000 nM
16 | O=C(CCc1c(-c2ccc(F)cc2)[nH]c2ccc(F)cc12)N[C@@H](CO)C(F)F [Compound 3] | 250 to 1000 nM
17 | O=C(CCc1c(-c2ccc(F)cc2)[nH]c2c(F)cc(F)cc12)NC1=CCNC1=O [Compound 94, 3-[5,7-difluoro-2-(4-fluorophenyl)-1H-indol-3-yl]-N-(5-oxo-1,2-dihydropyrrol-4-yl)propanamide] | > 1000 nM
18 | C[C@@H]1NC(=O)[C@H]1NC(=O)CCc1c(-c2ccc(F)cc2)[nH]c2c(F)cc(F)cc12 [Compound 96] | 250 to 1000 nM
19 | N#CC(NC(=O)CCc1c(-c2ccc(F)cc2)[nH]c2c(F)cc(F)cc12)C(N)=O (centres unmarked) [Compound 127] | 250 to 1000 nM
20 | O=C(CCc1c(-c2ccc(F)cc2)[nH]c2c(F)cc(F)cc12)N[C@@H](CO)C(F)F [Compound 132] | < 250 nM
21 | O=C(CCc1c(-c2ccc(F)cc2)[nH]c2c(F)cc(F)cc12)N[C@H]1C[C@H](O)C1 [Compound 159] | > 1000 nM
22 | Cc1cc(F)c2[nH]c(-c3ccc(F)cc3)c(CCC(=O)N[C@@H](CO)C(F)(F)F)c2c1 [Compound 214] | < 250 nM
23 | Cc1cc(F)c2[nH]c(-c3ccc(F)cc3)c(CCC(=O)NC(CO)(CO)CO)c2c1 [Compound 217] | > 1000 nM

The next lines start with the values.

Row | IC50 | Structure (SMILES)
24 | 250 to 1000 nM | CC(CCO)NC(=O)CCc1c(-c2ccc(F)cc2)[nH]c2c(F)cc(Cl)cc12 (racemic) [Compound 200]
25 | 250 to 1000 nM | NC(=O)C1(NC(=O)CCc2c(-c3ccc(F)cc3)[nH]c3c(F)cc(F)cc23)CC1 [Compound 107]
26 | 250 to 1000 nM | CC1(CO)CCN1C(=O)CCc1c(-c2ccc(F)cc2)[nH]c2c(F)cc(F)cc12 (centres unmarked) [Compound 110]
27 | 250 to 1000 nM | O=C(CCc1c(-c2ccc(F)cc2)[nH]c2c(F)cc(Cl)cc12)NC1(CO)CCC1 [Compound 194, 3-[5-chloro-7-fluoro-2-(4-fluorophenyl)-1H-indol-3-yl]-N-[1-(hydroxymethyl)cyclobutyl]propanamide]
28 | 250 to 1000 nM | O=C(CCc1c(-c2ccc(F)cc2)[nH]c2c(F)cc(Cl)cc12)NC(CO)(CO)CO [Compound 195]
29 | 250 to 1000 nM | O=C(CCc1c(-c2ccc(F)cc2)[nH]c2c(F)cc(Cl)cc12)NC(CO)CF (centres unmarked) [Compound 196]
30 | 250 to 1000 nM | CC(CO)(CO)NC(=O)CCc1c(-c2ccc(F)cc2)[nH]c2c(F)cc(Cl)cc12 [Compound 197]
31 | 250 to 1000 nM | N#CC(CO)NC(=O)CCc1c(-c2ccc(F)cc2)[nH]c2c(F)cc(Cl)cc12 (centres unmarked) [Compound 198]
32 | 250 to 1000 nM | O=C(CCc1c(-c2ccc(F)cc2)[nH]c2c(F)cc(Cl)cc12)NCCO [Compound 199]
33 | > 1000 nM | NC(=O)CNC(=O)CCc1c(-c2ccc(F)cc2)[nH]c2c(F)cc(Cl)cc12 [Compound 201]
34 | > 1000 nM | NC(=O)[C@@H](CO)NC(=O)CCc1c(-c2ccc(F)cc2)[nH]c2c(F)cc(Cl)cc12 [Compound 202]
35 | > 1000 nM | C[C@@H](CO)NC(=O)CCc1c(-c2ccc(F)cc2)[nH]c2c(F)cc(Cl)cc12 [Compound 203]
36 | > 1000 nM | O=C(CCc1c(-c2ccc(F)cc2)[nH]c2c(F)cc(Cl)cc12)NC[C@H](O)CO [Compound 204]
37 | > 1000 nM | O=C(CCc1c(-c2ccc(F)cc2)[nH]c2c(F)cc(Cl)cc12)N[C@H](CO)C(F)(F)F [Compound 205]
38 | > 1000 nM | NC(=O)[C@H](CO)NC(=O)CCc1c(-c2ccc(F)cc2)[nH]c2c(F)cc(Cl)cc12 [Compound 206]
39 | < 250 nM | O=C(CCc1c(-c2ccc(F)cc2)[nH]c2c(F)cc(Cl)cc12)N[C@@H](CO)C(F)(F)F [Compound 207]
40 | < 250 nM | C[C@H](CO)NC(=O)CCc1c(-c2ccc(F)cc2)[nH]c2c(F)cc(Cl)cc12 [Compound 208]
41 | > 1000 nM | O=C(CCc1c(-c2ccc(F)cc2)[nH]c2c(F)cc(Cl)cc12)NCCCO [Compound 209]
42 | > 1000 nM | O=C(CCc1c(-c2ccc(F)cc2)[nH]c2c(F)cc(Cl)cc12)NC[C@@H](O)CO [Compound 210]
43 | > 1000 nM | CN(C[C@H](O)CO)C(=O)CCc1c(-c2ccc(F)cc2)[nH]c2c(F)cc(Cl)cc12 [Compound 211]
44 | 250 to 1000 nM | O=C(CCc1c(-c2ccc(F)cc2)[nH]c2c(F)cc(Cl)cc12)NC(CO)CO [Compound 212]
45 | 250 to 1000 nM | Cc1cc(F)c2[nH]c(-c3ccc(F)cc3)c(CCC(=O)N[C@H](C)CO)c2c1 [Compound 213]
46 | 250 to 1000 nM | Cc1cc(F)c2[nH]c(-c3ccc(F)cc3)c(CCC(=O)NC(C#N)CO)c2c1 (centres unmarked) [Compound 215]
47 | 250 to 1000 nM | Cc1cc(F)c2[nH]c(-c3ccc(F)cc3)c(CCC(=O)NC3(CO)CCC3)c2c1 [Compound 216]
